In the supplement of paper PMC4862054 one finds drug sensitivity score and normalised response data, which are given here for ten compounds.

Where “and” joins values, the source holds several entries; their conditions need not be identical. Equal values may be shown once.

Holding throughout (details): incubation time: 72 h
The subject of experiment [1] is DU-4475. Put plainly: drug sensitivity score (DSS), CellTiter-Blue viability (DSS (AUC-based score)); higher = stronger viability inhibition; extreme values may be limits of the assay. As to the method: (§1)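 DSRT with the CellTiter-Blue (resazurin reduction) viability readout, fluorescence 560/590 nm, 72 h incubation. Plates were normalised to DMSO and benzethonium chloride controls. DSS is computed from the area under the fitted dose-response curve (5 or 9 concentrations).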
For orientation: Alamar Blue is a resazurin reagent that responds to reducing activity.

Another experiment deals with SK-BR-3. Described as above. As for the experimental part:
as §1

The next experiment has as its system CAL-120. The description is as above. As to the method: as §1
The subject of another experiment is HDQ-P1. The experiment is described as above. As to the method:
as §1

Experiment [2] concerns CAL-85-1. The description is as above. As for the experimental part: as §1
Experiment [3] deals with CAL-51. Described as above. As for the experimental part:
as §1

In experiment [4] the test system is BT-549. The description is as above. As for the experimental part: as §1
The test system of experiment [5] is Hs578T. The experiment is described as above. As for the experimental part: as §1
Another experiment has as its system MDA-MB-231. The experiment is described as above. As for the experimental part:
as §1

For experiment [6], the system named is BT-474. Described as above. As for the experimental part:
as §1

For experiment [7], the system named is MFM-223. The description is as above. As for the experimental part:
as §1

Experiment [8] relates to HCC1143. Described as above. As to the method: as §1
For a further experiment, the system named is MDA-MB-468. The experiment is described as above. As to the method:
as §1

The subject of experiment [9] is MDA-MB-453. The experiment is described as above. As for the experimental part:
as §1

Experiment [10] deals with DU-4475. Briefly: normalised response (% of control), CellTox Green; higher = less cell death (100 = DMSO, 0 = benzethonium chloride kill control). Summed up: (§2)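 Breast cancer cell lines (20 µl suspension) were seeded into 384-well plates holding compound at 5 concentrations in 10-fold steps over a compound-specific 10,000-fold range, then incubated 72 h. CellTox Green fluorescence (485/520 nm) was read first, then CellTiter-Glo luminescence after 10 min at room temperature. Each plate was normalised to 0.1 % DMSO (100) and a positive kill control (0). Each value is the normalised signal at a single concentration of the series.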

For a further experiment, the system named is MDA-MB-436. Described as above. Summed up:
as §2

For a further experiment, the system named is MCF-10A. The description is as above. Summed up:
as §2

For experiment [11], the system named is CAL-85-1. Described as above. Summed up: as §2
The subject of experiment [12] is CAL-51. Described as above. Summed up: as §2
Experiment [13] concerns BT-549. The description is as above. Summed up: as §2
For experiment [14], the system named is Hs578T. The experiment is described as above. Summed up:
as §2

For a further experiment, the system named is HCC1937. The description is as above. Summed up:
as §2

The subject of experiment [15] is BT-474. The description is as above. Summed up:
as §2

For another experiment, the system named is CAL-148. The description is as above. Summed up:
as §2

The test system of experiment [16] is MFM-223. The experiment is described as above. Summed up: as §2
The next experiment relates to HCC1599. The description is as above. Summed up: as §2
The test system of experiment [17] is HCC1143. Described as above. Summed up:
as §2

Experiment [18] relates to MDA-MB-453. The description is as above. Summed up:
as §2

For `Cc1cc(Nc2cc(CN3CCOCC3)c3nc(C)c(Cc4ccc(Cl)cc4F)n3n2)n[nH]1`, the drug sensitivity score in the experiment with DU-4475 [1] is 4.98; with SK-BR-3 it was 6.64; with CAL-120, 8.01; in the experiment on HDQ-P1 it was 11.8; with CAL-85-1 [2] it was 4.09; with CAL-51 [3], 6.91. For the same compound, the drug sensitivity score turned out to be 6.94 in the experiment with BT-549 [4]; 7.69 in the experiment on Hs578T [5]; 7.21 in the experiment with MDA-MB-231; 3.02 in the experiment with BT-474 [6]; 13.5 in the experiment with MFM-223 [7]; 11.4 with HCC1143 [8]. Further, the drug sensitivity score was determined as 10.3 in the experiment with MDA-MB-468 and 10.2 in the experiment on MDA-MB-453 [9].
With `N#Cc1ccc(COC[C@H]2O[C@@H](n3c(NCc4ccc(Cl)c(Cl)c4)nc4c(N)ncnc43)[C@H](O)[C@@H]2O)cc1`, the drug sensitivity score with DU-4475 [1] is 1.33; in the experiment on SK-BR-3, 1.46; in the experiment on CAL-120, 0; in the experiment on HDQ-P1, 0; in the experiment on CAL-85-1 [2], 0; with CAL-51 [3] it was 0. For the same compound, the drug sensitivity score with BT-549 [4] was 4.23; in the experiment with Hs578T [5] it was 0; in the experiment on MDA-MB-231, 4.35; with BT-474 [6], 0; in the experiment on MFM-223 [7], 0; in the experiment on HCC1143 [8], 0. The drug sensitivity score was determined as 1.65 in the experiment on MDA-MB-468 and 0 in the experiment on MDA-MB-453 [9].
In the case of `COc1cc(OC2CCN(C)CC2)ccc1Nc1ncc2c(n1)n(C1CCCC1)c(=O)n2C` [AZ 3146], the drug sensitivity score with DU-4475 [1] came out at 1.56; with SK-BR-3, 2.13; in the experiment on CAL-120 it was 0.478; in the experiment on HDQ-P1 it was 0; in the experiment on CAL-85-1 [2] it was 1.25; in the experiment on CAL-51 [3], 8.18. Further, the drug sensitivity score in the experiment on BT-549 [4] came to 0; in the experiment with Hs578T [5], 0; in the experiment with MDA-MB-231 it was 3.65; with BT-474 [6], 0; with MFM-223 [7], 0; with HCC1143 [8], 0. In addition, the drug sensitivity score with MDA-MB-468 amounted to 0; in the experiment on MDA-MB-453 [9], 3.31.
On to `CN(C)c1nc(N(C)C)nc(N(C)C)n1` [Altretamine], for which the drug sensitivity score in the experiment with DU-4475 [1] is 0; in the experiment with SK-BR-3, 0; with CAL-120, 0; in the experiment with HDQ-P1, 0; in the experiment on CAL-85-1 [2], 1.01; in the experiment with CAL-51 [3] it was 0. Further, the drug sensitivity score in the experiment on BT-549 [4], in the experiment with Hs578T [5], in the experiment with MDA-MB-231, in the experiment on BT-474 [6], in the experiment on MFM-223 [7] and in the experiment with HCC1143 [8] was 0 in each case. For the same compound, the drug sensitivity score in the experiment on MDA-MB-468 was found to be 0; in the experiment with MDA-MB-453 [9] it was 2.05.
Turning to `COC(=O)c1ccc2c(c1)NC(=O)/C2=C(\Nc1ccc(N(C)C(=O)CN2CCN(C)CC2)cc1)c1ccccc1` [BIBF 1120], the drug sensitivity score in the experiment with DU-4475 [1] came to 2.02; with SK-BR-3, 2.7; with CAL-120, 6.55; in the experiment with HDQ-P1, 1.16; in the experiment on CAL-85-1 [2], 1.29; with CAL-51 [3], 5.59. In addition, the drug sensitivity score in the experiment with BT-549 [4] is 3.02; in the experiment on Hs578T [5], 1.63; in the experiment on MDA-MB-231, 4.3; in the experiment with BT-474 [6], 3.34; in the experiment on MFM-223 [7], 9.32; in the experiment on HCC1143 [8] it was 0. In addition, the drug sensitivity score with MDA-MB-468 was determined as 2.89; with MDA-MB-453 [9], 5.53.
Turning to `COc1cc2ncnc(Nc3ccc(F)c(Cl)c3)c2cc1OCCCN1CCOCC1` [Gefitinib], the drug sensitivity score in the experiment with DU-4475 [1] is 0; with SK-BR-3, 6.49 and 10.4; in the experiment on CAL-85-1 [2] it was 8.75 and 10.2; in the experiment with CAL-51 [3], 0; in the experiment with BT-549 [4], 2.48 and 0.865; in the experiment with BT-474 [6] it was 9.05 and 8.8. Moreover, the drug sensitivity score was 0 in the experiment with MFM-223 [7]; 0 in the experiment with HCC1143 [8]; 9.52 and 7.51 in the experiment on MDA-MB-468; 3.14 and 5.26 in the experiment with MDA-MB-453 [9].
Consider `CCc1c2c(nc3ccc(OC(=O)N4CCC(N5CCCCC5)CC4)cc13)-c1cc3c(c(=O)n1C2)COC(=O)[C@]3(O)CC` [Irinotecan], for which the drug sensitivity score was 7.9 and 5.68 with DU-4475 [1]; 6.6 and 2.45 with SK-BR-3; 5.49 and 3.99 with CAL-120; 2.57 and 1.55 in the experiment with CAL-85-1 [2]; 6.14 and 4.1 in the experiment on CAL-51 [3]; 0 with Hs578T [5]. For the same compound, the drug sensitivity score with BT-474 [6] was 0; in the experiment with MDA-MB-468, 6.9 and 5.16.
Regarding `O=C(Nc1cccnc1)N1CCC(Cc2cccc(Oc3ccc(C(F)(F)F)cn3)c2)CC1` [PF-3845] (10000 nM), the normalised response in the experiment on DU-4475 [10] came to 101%; in the experiment with MDA-MB-436, 101%; with MCF-10A, 103%; in the experiment with CAL-85-1 [11], 69.5%; with CAL-51 [12], 108%; in the experiment with BT-549 [13], 111%. In addition, the normalised response with Hs578T [14] is 90.3%; in the experiment on HCC1937, 76.2%; in the experiment with BT-474 [15], 76.7%; with CAL-148 it was 103%; with MFM-223 [16] it was 78.1%; in the experiment on HCC1599, 95.7%. For the same compound, the normalised response in the experiment with HCC1143 [17] is 126%; in the experiment on MDA-MB-453 [18] it was 63.6%.
Turning to `Cc1[nH]c2ccccc2c1CCNCc1ccc(/C=C/C(=O)NO)cc1` [Panobinostat] (100 nM), the normalised response with DU-4475 [10] was 62.1%; in the experiment on MDA-MB-436, 10.6%; with MCF-10A it was 99.6%; with CAL-85-1 [11], 10.4%; with CAL-51 [12], -3.76%; with BT-549 [13], 105%. In addition, the normalised response in the experiment on Hs578T [14] was -15.2%; in the experiment on HCC1937, -55.9%; in the experiment on BT-474 [15], 36.8%; in the experiment on CAL-148, -4.89%; in the experiment with MFM-223 [16] it was 71.4%; in the experiment on HCC1599 it was 75%. In addition, the normalised response stood at 71.8% in the experiment with HCC1143 [17] and 88.3% in the experiment on MDA-MB-453 [18].
Regarding `Cc1[nH]c2ccccc2c1CCNCc1ccc(/C=C/C(=O)NO)cc1` [Panobinostat] (1000 nM), the normalised response is 68.2% with DU-4475 [10]; 86.6% in the experiment with MDA-MB-436; 34.9% with MCF-10A; -26% in the experiment on CAL-85-1 [11]; -9.56% in the experiment on CAL-51 [12]; 69.6% in the experiment on BT-549 [13]. For the same compound, the normalised response in the experiment on Hs578T [14] was -12.8%; in the experiment with HCC1937, -17.6%; in the experiment on BT-474 [15] it was 19.9%; with CAL-148, 4.38%; in the experiment on MFM-223 [16], 32.5%; in the experiment on HCC1599, 53.1%. For the same compound, the normalised response with HCC1143 [17] worked out at 47.3%; in the experiment with MDA-MB-453 [18] it was 75.5%.
